Experiments:
SW620 cells (KRAS G12V) = assay: Cell-based pERK HTRF assay in SW620 cell (Biological Example 4); settings: Homo sapiens, SW-620, SW620 (KRAS G12V) cells, pERK HTRF
In short: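 This assay measures inhibition of ERK phosphorylation downstream of KRAS G12V in intact SW620 cells. Compounds are applied for 4 h over nine half-log concentrations starting at 1 μM, and pERK is quantified by HTRF.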

[1] = target: T1, Avi-KRAS G12D (1-169) GppNHp/RAF1 RBD-3xFLAG (52-151) (Homo sapiens, UniProt P01116, G12D); assay: Raf1-KRAS G12D-GppNHP disruption HTRF assay (Biological Example 1); assay type: binding
T1 construct: Avi-KRAS G12D (1-169)
T1 sequence (P01116 1-169 isoform P01116-2 G12D): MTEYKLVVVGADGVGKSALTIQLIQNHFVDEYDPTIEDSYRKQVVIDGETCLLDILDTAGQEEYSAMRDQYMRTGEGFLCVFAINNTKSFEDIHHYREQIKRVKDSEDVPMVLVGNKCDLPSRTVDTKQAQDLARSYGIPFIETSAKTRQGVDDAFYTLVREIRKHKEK
In short: (§1)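 Measured with a KRAS/RAF1 HTRF assay at pH 7.5 in 10% DMSO, with two 1 h room-temperature incubations with shaking.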

[2] = target: T2, Avi-KRAS WT (1-169) GppNHp/RAF1 RBD-3xFLAG (52-151) (Homo sapiens, UniProt P01116); assay: Raf1-KRAS WT-GppNHP disruption HTRF assay (Biological Example 1); assay type: binding
T2 construct: Avi-KRAS WT (1-169)
T2 sequence (P01116 1-169 isoform P01116-2): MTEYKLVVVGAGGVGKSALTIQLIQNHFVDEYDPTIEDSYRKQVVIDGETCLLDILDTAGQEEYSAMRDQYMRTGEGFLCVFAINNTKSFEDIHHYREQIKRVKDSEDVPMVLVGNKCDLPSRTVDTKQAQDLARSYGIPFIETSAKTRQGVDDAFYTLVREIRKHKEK
In short: as §1

[3] = target: T3, Avi-KRAS G12R (1-169) GppNHp/RAF1 RBD-3xFLAG (52-151) (Homo sapiens, UniProt P01116, G12R); assay: Raf1-KRAS G12R-GppNHP disruption HTRF assay (Biological Example 1); assay type: binding
T3 construct: Avi-KRAS G12R (1-169)
T3 sequence (P01116 1-169 isoform P01116-2 G12R): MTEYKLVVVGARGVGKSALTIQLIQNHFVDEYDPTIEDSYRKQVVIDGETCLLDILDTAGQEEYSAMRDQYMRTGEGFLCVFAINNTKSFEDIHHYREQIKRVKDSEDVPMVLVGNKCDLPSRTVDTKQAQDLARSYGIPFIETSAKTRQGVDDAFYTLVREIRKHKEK
In short: as §1

GP2d cells (KRAS G12D) = assay: Cell-based pERK HTRF assay in GP2d cell (Biological Example 2); settings: GP2d, GP2d (KRAS G12D) cells, pERK HTRF
In short: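 Cells grown in DMEM with 10% FBS were exposed to compound for 60 min at 0.25% DMSO, using a 9-point half-log series starting at 1 μM or 100 nM. Lysates were then mixed with d2 and Eu cryptate antibodies for 4–24 h at room temperature, and pERK was read by HTRF.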

[4] = target: T4, Avi-KRAS G12V (1-169) GppNHp/RAF1 RBD-3xFLAG (52-151) (Homo sapiens, UniProt P01116, G12V); assay: Raf1-KRAS G12V-GppNHP disruption HTRF assay (Biological Example 1); assay type: binding
T4 construct: Avi-KRAS G12V (1-169)
T4 sequence (P01116 1-169 isoform P01116-2 G12V): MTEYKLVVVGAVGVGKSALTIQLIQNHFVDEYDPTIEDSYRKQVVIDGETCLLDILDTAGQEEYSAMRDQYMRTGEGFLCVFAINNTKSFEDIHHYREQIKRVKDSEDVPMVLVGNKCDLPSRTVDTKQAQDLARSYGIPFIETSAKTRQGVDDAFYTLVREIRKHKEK
In short: as §1

[5] = KRAS G12D, GppNHp-loaded, class symbols
[6] = KRAS WT, GppNHp-loaded, class symbols
[7] = KRAS G12R, GppNHp-loaded, class symbols
[8] = KRAS G12V, GppNHp-loaded, class symbols

IC50 (SW620 cells (KRAS G12V))	IC50 ([1]; KRAS G12D-GppNHp/RAF1 RBD HTRF)	IC50 ([2]; KRAS WT-GppNHp/RAF1 RBD HTRF)	IC50 ([3]; KRAS G12R-GppNHp/RAF1 RBD HTRF)	IC50 (GP2d cells (KRAS G12D))	IC50 ([4]; KRAS G12V-GppNHp/RAF1 RBD HTRF)	IC50 (SW620 cells (KRAS G12V); class symbols)	IC50 [1, 5]	IC50 [2, 6]	IC50 [3, 7]	IC50 (GP2d cells (KRAS G12D); class symbols)	IC50 [4, 8]	IC50 ([1]; KRAS G12D, GppNHp-loaded, Table 11)	IC50 ([2]; KRAS WT, GppNHp-loaded, Table 11)	IC50 ([3]; KRAS G12R, GppNHp-loaded, Table 11)	IC50 ([4]; KRAS G12V, GppNHp-loaded, Table 11)	SMILES
< 100 nM	< 100 nM	< 100 nM	100 to 1000 nM	< 100 nM	100 to 1000 nM											N#Cc1c(N)sc2c(F)ccc(-c3c(C(F)(F)F)cc4c(N5CCO[C@@H](CO)C5)nc(OC[C@@]56CCCN5C[C@H](F)C6)nc4c3F)c12 [Compound 282]
						< 100 nM	< 100 nM	100 to 1000 nM	< 100 nM	< 100 nM	< 100 nM					N#Cc1c(N)sc2c(F)ccc(-c3c(C(F)(F)F)cc4c(N5CCn6nc(C(=O)N7CCCC7)cc6C5)nc(OCC56CCCN5CC(F)C6)nc4c3F)c12 (stereo not drawn) [Compound 627]
< 100 nM	< 100 nM	< 100 nM	< 100 nM	< 100 nM	< 100 nM											CCN(c1nc(OC[C@@]23CCCN2C[C@H](F)C3)nc2c(F)c(-c3ccc(F)c4sc(N)c(C#N)c34)c(C(F)(F)F)cc12)[C@H]1CCN(C(=O)c2ccno2)C1 (atropisomer, axis not shown) [Compound 552]
						< 100 nM	< 100 nM	< 100 nM	< 100 nM	< 100 nM	< 100 nM					CCN(c1nc(OC[C@@]23CCCN2C[C@H](F)C3)nc2c(F)c(-c3ccc(F)c4sc(N)c(C#N)c34)c(C(F)(F)F)cc12)[C@H]1CCN(C(=O)[C@@H]2CCCCO2)C1 (atropisomer, axis not shown) [Compound 769]
100 to 1000 nM				< 100 nM								100 to 1000 nM	100 to 1000 nM	1000 to 10000 nM	1000 to 10000 nM	CC(=O)N1C[C@@H]2CCN(c3nc(OC[C@@]45CCCN4C[C@H](F)C5)nc4c(F)c(-c5ccc(F)c6sc(N)c(C#N)c56)c(C(F)(F)F)cc34)[C@@H]2C1 [Compound 211]
< 100 nM	100 to 1000 nM	100 to 1000 nM	100 to 1000 nM	< 100 nM	100 to 1000 nM											CNC(=O)N1CC[C@@H](N(C)c2nc(OC[C@@]34CCCN3C[C@H](F)C4)nc3c(F)c(-c4ccc(F)c5sc(N)c(C#N)c45)c(C(F)(F)F)cc23)[C@H]1C [Compound 427]
< 100 nM	< 100 nM	< 100 nM	< 100 nM	< 100 nM	< 100 nM											CCN(c1nc(OC[C@@]23CCCN2C[C@H](F)C3)nc2c(F)c(-c3ccc(F)c4sc(N)c(C#N)c34)c(C(F)(F)F)cc12)[C@H]1CCN(C(=O)N(C)C)C1 [Compound 395]
						< 100 nM	100 to 1000 nM	100 to 1000 nM	100 to 1000 nM	< 100 nM	100 to 1000 nM					CCN(c1nc(OC[C@@]23CCCN2C[C@H](F)C3)nc2c(F)c(-c3ccc(F)c4sc(N)c(C#N)c34)c(C(F)(F)F)cc12)[C@H]1C[C@@H](C)N(C(=O)N2CC(OC)C2)C1 (atropisomer, axis not shown) [Compound 734]
						< 100 nM	< 100 nM	100 to 1000 nM	100 to 1000 nM	< 100 nM	100 to 1000 nM					CN(c1nc(OC[C@@]23CCCN2C[C@H](F)C3)nc2c(F)c(-c3ccc(F)c4sc(N)c(C#N)c34)c(C(F)(F)F)cc12)[C@H]1CCN(C(=O)[C@@H]2CC2(F)F)C1 (atropisomer, axis not shown) [Compound 785]
						< 100 nM	< 100 nM	< 100 nM	< 100 nM	< 100 nM	< 100 nM					CCN(c1nc(OC[C@@]23CCCN2C[C@H](F)C3)nc2c(F)c(-c3ccc(F)c4sc(N)c(C#N)c34)c(C(F)(F)F)cc12)[C@H]1CCN(C(=O)[C@@H]2C[C@@H]2F)C1 (atropisomer, axis not shown) [Compound 691]
						100 to 1000 nM	1000 to 10000 nM	100 to 1000 nM	1000 to 10000 nM	100 to 1000 nM	1000 to 10000 nM					CCN(c1nc(OC[C@@]23CCCN2C[C@H](F)C3)nc2c(F)c(-c3ccc(F)c4sc(N)c(C#N)c34)c(C(F)(F)F)cc12)[C@H]1CCN(C(=O)OC)[C@H]1C (atropisomer, axis not shown) [Compound 799]
< 100 nM	< 100 nM	< 100 nM	< 100 nM	< 100 nM	< 100 nM											CCN(c1nc(OC[C@@]23CCCN2C[C@H](F)C3)nc2c(F)c(-c3ccc(F)c4sc(N)c(C#N)c34)c(C(F)(F)F)cc12)[C@H]1CCN(C(=O)COC)C1 (atropisomer, axis not shown) [Compound 561]
						< 100 nM	100 to 1000 nM	100 to 1000 nM	100 to 1000 nM	< 100 nM	100 to 1000 nM					CCN(c1nc(OC[C@@]23CCCN2C[C@H](F)C3)nc2c(F)c(-c3ccc(F)c4sc(N)c(C#N)c34)c(C(F)(F)F)cc12)[C@H]1C[C@@H](C)N(C(=O)N2CC(F)C2)C1 (atropisomer, axis not shown) [Compound 782]
> 1000 nM	> 10000 nM	> 10000 nM	> 10000 nM	> 1000 nM	> 10000 nM											C[C@@]1(CO)CCN1c1nc(OC[C@@]23CCCN2C[C@H](F)C3)nc2c(F)c(-c3ccc(F)c4sc(N)c(C#N)c34)c(C(F)(F)F)cc12 [Compound 413]
100 to 1000 nM	1000 to 10000 nM	1000 to 10000 nM	1000 to 10000 nM	100 to 1000 nM	1000 to 10000 nM											CC[C@@H]1[C@H](N(C)c2nc(OC[C@@]34CCCN3C[C@H](F)C4)nc3c(F)c(-c4ccc(F)c5sc(N)c(C#N)c45)c(C(F)(F)F)cc23)CCN1C(=O)C(C)C [Compound 433]
						< 100 nM	< 100 nM	< 100 nM	< 100 nM	< 100 nM	< 100 nM					CCN(c1nc(OC[C@@]23CCCN2C[C@H](F)C3)nc2c(F)c(-c3ccc(F)c4sc(N)c(C#N)c34)c(C(F)(F)F)cc12)[C@H]1CCN(C(=O)C=C(C)C)C1 (atropisomer, axis not shown) [Compound 675]
